# Like-named read-outs stand apart in the source and are kept apart here.
# Columns and labels:
# [1] = type: physicochemical
# Experimental: Polymer solutions of 1 […] 6 mgmL^-1 were made up in deionised water and probe sonicated for 10 mins to ensure homogeneity. […] The drug loading capacity of the self assemblies was determined using high performance liquid chromatography (HPLC). […] The samples were diluted with mobile phase and 20 μl was injected onto the column, the resultant peak at 7 mins was analysed.
# [2] = type: physicochemical; remark: listed apart in the source
# Experimental: (§1) Polymer solutions of 1 mgmL^−1, 3 mgmL^−1 and 6 mgmL^−1 were made up in deionised water and probe sonicated for 10 mins to ensure homogeneity. The hydrophobic drug was added in 1:1, 5:1 and 10:1 drug:excipient ratios and the drug-polymer solutions were probe sonicated for a further 10 mins to ensure maximum encapsulation was achieved. After cooling to room temperature, the solutions were filtered using 0.45 μm GDX PVDF syringe filters to ensure any excess unencapsulated propofol was removed.
# A reverse phase Zorbax ODS 250 mm×46 mm×5 […] HPLC column was used with flow rate of 1 mlmin^−1 of the mobile phase (40:3:57 methanol:acetonitrile:water) in an isocratic mode. […] The samples were diluted with mobile phase and 20 μl was injected onto the column, the resultant peak at 20 mins was analysed. The drug content was determined by comparing to a calibration carried out on etoposide dissolved in methanol (31.3-500 μgmL^−1).
# [3] = type: physicochemical; remark: listed apart in the source
# Experimental: Polymer solutions of 1 […] 6 mgmL^-1 were made up in deionised water and probe sonicated for 10 mins to ensure homogeneity. […] A reverse phase Phenomenex C18 250 mm×46 mm×5 μm HPLC column was used with flow rate of 1 mlmin^-1 of the mobile phase (45:55 acetonitrile:45 mM potassium dihydrogen phosphate made up in water and pH adjusted to pH3 with orthophosphoric acid) in an isocratic mode.
# HEK 293 cells = assay: MTT assay on HEK 293 cells; type: cell-based, Human; conditions: for IC50: Homo sapiens
# Experimental: The safety profile of various drugs and nano-aggregates of the drugs and polymers were investigated using the standard colorimetric MTT (3-(4,5-Dimethylthiazol-2-yl)-2,5-diphenyltetrazolium bromide) assay.
# An MTT assay was carried out using Caco-2 and HEK cells. Caco-2 cells were cultured as previously described. HEK cells were cultured in Dulbecco's minimum essential medium (DMEM) containing 10% FBS and 1% penicillin streptomycin (Penstrep).
# Polymeric self-assemblies were formed by probe sonicating the polymers in sterile water (5 mgmL^−1). The polymer stock solutions were diluted to 0.005 mgmL^−1 with media. Etoposide stock solution (20 mgmL^−1) was prepared by diluting the drug in DMSO. The formulations were prepared by addition of drug into 0.005 mgmL^−1 polymer solution.
# [4] = Aqueous solubility of model hydrophobic drugs; type: physicochemical
# Caco-2 cells = assay: MTT assay on Caco-2 cells; type: cell-based
# Experimental: The cytotoxicity of the modified PAA polymers was determined using the MTT assay model. Caco-2 cells were cultured in minimum essential medium (MEM) containing 10% foetal bovine serum (FBS), 1% L-glutamine and 1% non essential amino acids (NEAA).
# A 10 mgmL^−1 polymer solution was prepared using sterile water as the diluent. The solution was further diluted with media to form a 0.5 mgmL^−1 stock solution. From the stock solution nine dilutions (0.2-1×10^−4 mgmL^−1) were made using media as the diluent.
# Caco-2 cells (200 μL, 10000 cells/well) in exponential growth phases were seeded into a 96-well flat bottomed plate and incubated for 24 h at 37° C. with 5% CO2. The media was replaced with increasing polymer concentrations (0.5-1×10^−4 mgmL^−1) as prepared above. Media and Triton X (1:5 PBS) were the negative and positive controls respectively. The plate was incubated as before. After 24 h the polymer solutions were removed and replaced with fresh media. […] The remaining purple formazan complexes were dissolved in DMSO (200 μL) and L-glycine buffer (25 mL, made up of 3.75 g glycine and 2.93 g NaCl made up in 500 mL and pH adjusted to pH 10.5) and the absorbance of the plates was read at 570 nm using a microplate reader (Ascend Lab-Systems, UK). Percentage cell viability was calculated relative to the positive and negative controls. […]
# [5] = cited from earlier work
# [6] = type: physicochemical; remark: listed apart in the source
# Experimental: as §1
# The BNIPDaoct content in self assemblies was carried out using reverse phase Zorbax ODS 250 mm×46 mm×5 […] HPLC column was used with flow rate of 1 mlmin^−1 of the mobile phase (55:45 buffer:acteonitrile) in an isocratic mode. The buffer was made up of 0.4 g octane sulfonic acid and anhydrous sodium acetate made up to 200 ml with deionised water, the solution was pH adjusted to pH4.5. The column eluent was monitored using a fluorescent Detector. The samples were diluted with mobile phase and 20 μl was injected onto the column, the resultant peak at 10 mins was analysed. A calibration was carried out by dissolving BNIPDaoct in DMSO:water (50:50 v/v) (39-625 μgmL^−1).
# [7] = Drug loading capacity: solubilisation of prednisolone (HPLC); type: physicochemical
compound,measurement,setting,value
5-Dimethylamino-1-naphthalenesulfonyl-PAA [Dansyl5],maximum concentration of propofol solubilised,[1],22.4 mgmL^−1
5-Dimethylamino-1-naphthalenesulfonyl-PAA [Dansyl10],Concentration of Etoposide solubilised,[2],1.890 (0.011) mgmL^−1
same,Increase from aqueous solubility,[3],557 Fold
"O=C1c2cccc3cccc(c23)C(=O)N1CCCNCCCCCCCCNCCCN1C(=O)c2cccc3cccc(c23)C1=O [BNIPDaoct, Bisnahthalimidopropyldiaminooctane]",IC50 (n = 3 ± SD),"HEK 293 cells; HEK 293 cells, IC50 of the polymer was used in the formulations",0.00496 (0.00005) mgmL^−1
same,aqueous solubility (in words),[4],negligible
COc1cc([C@@H]2c3cc4c(cc3[C@@H](O[C@@H]3O[C@@H]5CO[C@@H](C)O[C@H]5[C@H](O)[C@H]3O)[C@H]3COC(=O)[C@H]23)OCO4)cc(OC)c1O [Etoposide],IC50,"Caco-2 cells; Homo sapiens, Caco-2, read-out: IC50 on Caco-2 cells",190 µg/mL
same,aqueous solubility,[5]; 37° C.,148 to 153 µg/mL
same,aqueous solubility,[5]; value used for fold increase,0.15 mgmL^−1
same,IC50,"HEK 293 cells; HEK293, read-out: IC50 (n = 3 ± SD), HEK 293 cells, IC50 of the polymer was used in the formulations",2.48 µg/mL
same,IC50,"HEK 293 cells; HEK293, IC90 of the polymer used in the formulations (5 μgmL^−1), read-out: IC50 on HEK 293 cells",2.5 µg/mL
"COC1=CC(=O)C[C@@H](C)[C@]12Oc1c(Cl)c(OC)cc(OC)c1C2=O [Griseofulvin, (2S)-trans-7-chloro-2′,4,6-trimethoxy 6′-methylspiro(benzofuran-2[3H],1′-[2]cyclohexene)3,4′-dione]",aqueous solubility,[5]; 25° C.,30 µg/mL
same,aqueous solubility,[5]; value used for fold increase,0.03 mgmL^−1
"CC(C)c1cccc(C(C)C)c1O [Propofol, 2,6-diisopropylphenol]",aqueous solubility,[5]; 25° C.,100 µg/mL
same,aqueous solubility,[5]; value used for fold increase,0.1 mgmL^−1
Cholesterol-PAA [Ch5],Number of fold more cytotoxic compared to IC50 of PAA,Caco-2 cells,−1.61
same,Concentration of Etoposide solubilised,[2],1.020 (0.040) mgmL^−1
same,Excipient:Drug Ratio after solubilisation,[2],5.88
same,Increase from aqueous solubility,[2],7 Fold
same,Concentration of BNIPDaoct solubilised,[6],0.3 mgmL^−1
same,Excipient:Drug Ratio after solubilisation,[6],3.33
same,maximum concentration of prednisolone solubilised,[7],7.05 mgmL^−1
same,Concentration of Griseofulvin solubilised,[3],1.2 mgmL^−1
same,Excipient:Drug Ratio after solubilisation,[3],5.00
same,Increase from aqueous solubility,[3],40 Fold

# From patent US20120238487A1, “POLYMER COMPOSITION USEFUL AS A PHARMACEUTICAL CARRIER” (ROBERT GORDON UNIVERSITY, priority 2009, published 2012)
